For one data set, the system named is ES-D3 cells. Nature of the data set: Cell viability assay (MTT), ES-D3. It is filed as cell-based, mouse. The note with it: for viability reduced by: three days; for IC50: ES-D3 cells, three day treatment, medium devoid of LIF, reduced serum, read-out: IC50 (half maximal inhibitory concentration, cell viability). How it is done: (§1) The medium was changed daily and the cells were passaged 2–3 times per week. […] A randomized control was performed with basal medium without growth factors and/or small molecules. Physiological activation of the Wnt/beta-catenin-pathway was tested in medium supplemented with 50 ng/ml Wnt3a.
(§2) The viability of the mouse ES cells was determined after exposure to different concentrations of GSK3 inhibitors for three days using the MTT assay. The decrease of MTT activity is a reliable metabolism-based test for quantifying cell viability; this decrease correlates with the loss of cell viability. 2,000 cells were seeded overnight on gelatine-coated 96-well plates in LIF-containing ES cell medium. […] Basal medium without GSK3 inhibitors or DMSO was used as control. All tested conditions were analyzed in triplicates.

In the next data set the test system is ES-CCE cells. In words: Cell viability assay (MTT), ES-CCE. It is filed as cell-based, mouse. The following applies: BIO 0.1-1 μM, others 1-10 μM, three days. How it is done:
as §1, §2

Data set [1] deals with Wnt/beta-catenin pathway. Nature of the data set: Wnt/beta-catenin TOPFlash dual luciferase reporter assay, ES-D3. It is filed as cell-based, mouse. The note with it: 48 and 72 h, vs control and 50 ng/ml Wnt3a. How it is done:
(§3) The Wnt/beta-catenin reporter assay was performed with the M50 Super 8× TOPFlash and M51 Super 8× FOPFlash vector containing the firefly luciferase gene under the control of TCF/LEF binding sites (M50 Super 8x TOPFlash) or mutated bindings sites (M51 Super 8× FOPFlash). 12,500 cells were seeded overnight on gelatine-coated 96-well plates in LIF-containing ES cell medium. On the next day the cells were transfected using Lipofectamine (Life Technologies) with one of the aforementioned vectors plus pGL4.75 [hRluc/CMV] (Promega) encoding the renilla luciferase reporter gene hRluc as a transfection control. […] The Dual-Luciferase® reporter assay system (Promega) was employed 48 and 72 h after medium change to follow the luminescence reaction using a GloMax®-multi detection system (Promega).
(§4) To assess the activation of the Wnt/beta-catenin signaling pathway by GSK3i, a dual luciferase reporter assay was used (Figure 2A/B). Mouse ES cells were transfected with the M50 TOPflash firefly luciferase vector, comprising seven TCF/LEF binding sites or as a negative control with the M51 FOPflash vector harboring mutated binding sites. To normalize the transfection efficiency, a hRluc/CMV vector with a constitutive expression of the renilla luciferase was used. Mouse ES cells of both lines were incubated with GSK3 inhibitors with concentrations close to the IC50 values calculated for the ES-D3 cell line. Dual luciferase luminescence was measured 48 and 72 h after cultivation with one of the inhibitors.
For orientation: A reporter such as luciferase makes a cellular process visible.

The subject of data set [2] is Wnt/beta-catenin pathway. Nature of the data set: Wnt/beta-catenin TOPFlash dual luciferase reporter assay, ES-CCE. It is filed as cell-based, mouse. The note with it: 48 and 72 h, vs random controls and 50 ng/ml Wnt3a. How it is done: as §3, §4
The test system of a further data set is T gene. In words: qPCR gene expression of T in ES-D3 cells. It is filed as cell-based, mouse. The following applies: six day treatment, vs undifferentiated or randomly differentiated cells. How it is done: Total RNA was isolated from the cells using the RNeasy Kit (Qiagen, Hilden, Germany). Briefly, the cells were lysed in Qiazol (Qiagen), the hydrophilic phase was loaded onto RNA spin columns, and RNA was then prepared as instructed. cDNA synthesis was performed with random hexamer primers and 2 μg of the isolated total RNA following the manufacturer’s instructions. 10–20 ng of cDNA was then loaded in each well of a 384-well plate and specific primers were mixed with the GoTaq® PCR master mix according to the manufacturers’ instructions. Primer sequences were (5’-3’): T fw: […], rev: […], Nanog fw: […], rev: […], and Pou5f1 fw: […], rev: […]. Each qPCR amplification was performed in triplicates and the gathered data were normalized with qBasePlus (Biogazelle, Zwijnaarde, Belgium) against the housekeeping genes G6pdx, Tbp, and Tuba1a[10].

The subject of a further data set is Brachyury. In words: Immunofluorescence staining of Brachyury in ES-D3 cells. It is filed as cell-based, mouse. The note with it: for saturation of the concentration-response curve, Brachyury-positive cells: 0-10 μM CHIR-99021 or 0-2.5 μM CHIR-98014; for EC50: read-out: EC50 (Brachyury-positive cells). How it is done: Immunofluorescence was performed according to standard procedures. ES cells were treated on 6-well plates with different GSK3 inhibitors and after 48 h 100,000 cells were re-seeded in each cavity of Matrigel-coated glass slides (Zellkontakt, Nörten-Hardenberg, Germany). After 24 h in medium the cells were fixed in 4% (w/v) paraformaldehyde for 45 min at 4°C. Subsequently, the cells were blocked for 20 min in PBS plus 0.2% Triton X-100, 6% BSA, and 1 mg/ml NaBH4. Primary and secondary antibodies were diluted in PBS with 0.1% Triton X-100 and 0.1% BSA. Primary antibodies were incubated on the slides for 2.5 h at room temperature (RT) or overnight at 4°C. Secondary antibodies were incubated on the slides for 1 h at RT. […] Secondary antibodies were obtained from Dianova (Hamburg, Germany). Finally, the slides were mounted with immunoselect antifading mounting medium containing DAPI (Dianova) to counterstain the nuclei. The stained cells were examined using an Olympus IX81 inverted microscope (Olympus, Hamburg, Germany).

A further data set concerns Oct3/4. In words: Immunofluorescence staining of Oct3/4 in ES-D3 cells. It is filed as cell-based, mouse. The note with it: three day treatment. How it is done:
Immunofluorescence was performed according to standard procedures. ES cells were treated on 6-well plates with different GSK3 inhibitors and after 48 h 100,000 cells were re-seeded in each cavity of Matrigel-coated glass slides (Zellkontakt, Nörten-Hardenberg, Germany). After 24 h in medium the cells were fixed in 4% (w/v) paraformaldehyde for 45 min at 4°C. Subsequently, the cells were blocked for 20 min in PBS plus 0.2% Triton X-100, 6% BSA, and 1 mg/ml NaBH4. Primary and secondary antibodies were diluted in PBS with 0.1% Triton X-100 and 0.1% BSA. Primary antibodies were incubated on the slides for 2.5 h at room temperature (RT) or overnight at 4°C. Secondary antibodies were incubated on the slides for 1 h at RT. The following primary antibodies were used: anti-Oct3/4 (sc-5279, Santa Cruz Biotechnology, Heidelberg, Germany) and anti-Brachyury (AF2085, R&D Systems, Minneapolis, MN, USA). Secondary antibodies were obtained from Dianova (Hamburg, Germany). Finally, the slides were mounted with immunoselect antifading mounting medium containing DAPI (Dianova) to counterstain the nuclei. The stained cells were examined using an Olympus IX81 inverted microscope (Olympus, Hamburg, Germany).

Another data set has as its system GSK3. The following applies: cell-free system; cited from earlier work.
The mark [3] stands for this setting: ES-D3, 5 μM, three day treatment.

Where two headings read alike, the source gives them in different places.

In the case of `O=C1Nc2cc(Br)ccc2/C1=C1/Nc2ccccc2/C1=N\O` [BIO], the “viability reduced by” value with ES-D3 cells (ES-D3, 0.25 μM) was found to be 25.7%; in the data set with ES-D3 cells (ES-D3, 0.5 μM), 58.7%; in the data set on ES-D3 cells (ES-D3, 0.75 μM) it was 68.7%; with ES-D3 cells (ES-D3, 1 μM), 83.5%. Further, in the data set on ES-D3 cells, the IC50 was determined as 480 nM. In addition, the “toxicity (in words)” value in the data set on ES-CCE cells is recorded as “strongly cytotoxic”. The “activation of the Wnt/beta-catenin pathway (luminescence signal)” value is listed as “did not result in a robust activation of the Wnt/beta-catenin pathway above controls” with Wnt/beta-catenin pathway [1] (ES-D3, 0.5 μM) and “comparable to that of negative or positive controls” in the data set with Wnt/beta-catenin pathway [2] (0.5 μM). In addition, the “T gene expression induction” value with T gene (ES-D3, 0.5 μM) is listed as “up to 300 fold”. In addition, the Brachyury-positive cells entry in the data set with Brachyury (ES-D3, 0.5 μM, three day treatment) was “almost no Brachyury-positive cells”. Further, in the data set with Oct3/4 (ES-D3, 0.5 μM), the “cells positive for Oct3/4” value is reported as “almost all cells were positive for Oct3/4”.

Usually EC50 stands for the concentration needed to bring the measured effect to its halfway point. Take `Cc1c[nH]c(-c2cnc(NCCNc3ccc(C#N)cn3)nc2-c2ccc(Cl)cc2Cl)n1` [CHIR-99021]: the “viability reduced by” value in the data set with ES-D3 cells (ES-D3, 2.5 μM) is 24.7%; with ES-D3 cells (ES-D3, 5 μM), 56.3%; in the data set on ES-D3 cells (ES-D3, 7.5 μM) it was 61.9%; with ES-D3 cells (ES-D3, 10 μM) it was 69.2%. Moreover, in the data set on ES-D3 cells (Mus musculus, 72 h), the IC50 turned out to be 4900 nM. Further, the “toxicity (in words)” value with ES-CCE cells is listed as “smallest reduction of the viability”. Further, the “activation of the Wnt/beta-catenin pathway (luminescence signal)” value is recorded as “significant activation of the Wnt/beta-catenin pathway” in the data set on Wnt/beta-catenin pathway [1] (ES-D3, 5 μM) and “only a significant increase at 72 h” with Wnt/beta-catenin pathway [2] (5 μM). In the data set on T gene (ES-D3, 5 μM), the “T gene expression induction” value was “up to 2,500 fold”. Also, the Brachyury-positive cells entry in the data set with Brachyury (setting [3]) is “around 43%”. Besides, the “saturation of the concentration-response curve, Brachyury-positive cells” value with Brachyury (ES-D3, three day treatment) amounted to 60%. For the same molecule, in the data set with Brachyury (Mus musculus, 72 h), the EC50 is 3190 nM. Also, the “selectivity as GSK3 inhibitor” value in the data set with GSK3 is given as “most selective GSK3 inhibitor”.

Regarding `Cn1cc(C2=C(c3ccc(Cl)cc3Cl)C(=O)NC2=O)c2ccccc21` [SB-216763], the “viability reduced by” value in the data set with ES-D3 cells (ES-D3, 1 μM) is reported as 1.7%; in the data set with ES-D3 cells (ES-D3, 2.5 μM), 29.8%; in the data set with ES-D3 cells (ES-D3, 5 μM), 55.6%; in the data set on ES-D3 cells (ES-D3, 7.5 μM), 56.1%; in the data set with ES-D3 cells (ES-D3, 10 μM), 57.2%. Moreover, the IC50 with ES-D3 cells (Mus musculus, 72 h) stood at 5700 nM. Besides, the “toxicity (in words)” value with ES-CCE cells was “smallest reduction of the viability”. Moreover, the “activation of the Wnt/beta-catenin pathway (luminescence signal)” value in the data set on Wnt/beta-catenin pathway [1] (ES-D3, 5 μM) is recorded as “significantly increased compared to control cells but not to Wnt3a-incubated cells”; in the data set with Wnt/beta-catenin pathway [2] (5 μM) it was “comparable to that of negative or positive controls”. Besides, in the data set with T gene (ES-D3, 5 μM), the “T gene expression induction” value is given as “up to 300 fold”. Moreover, in the data set on Brachyury (setting [3]), the “cells double-positive for Brachyury and Oct3/4” value is ~ 3%. Besides, in the data set with Oct3/4 (ES-D3, 5 μM), the “cells positive for Oct3/4” value is on record as “all cells were positive for Oct3/4”.

Take CHIR-98014: in the data set with ES-D3 cells (ES-D3, 1 μM), the “viability reduced by” value is reported as 52%. The IC50 in the data set on ES-D3 cells stood at 1100 nM. Also, the “activation of the Wnt/beta-catenin pathway (luminescence signal)” value is “significant activation of the Wnt/beta-catenin pathway” in the data set with Wnt/beta-catenin pathway [1] (ES-D3, 1 μM); “significant increase of Wnt-signaling after 48 and 72 h” in the data set with Wnt/beta-catenin pathway [2] (1 μM). Further, the “T gene expression induction” value with T gene (ES-D3, 1 μM) is listed as “up to 2,500 fold”. In the data set with Brachyury (ES-D3, 1 μM, three day treatment), this molecule displayed a Brachyury-positive cells of approximately 50%. For the same molecule, the “saturation of the concentration-response curve, Brachyury-positive cells” value in the data set on Brachyury (ES-D3, three day treatment) was determined as 50%. Besides, in the data set with Brachyury (ES-D3, three day treatment, counting of stained cells), the EC50 stood at 320 nM.

The record behind these values is paper PMC4008422, “Cytotoxicity and activation of the Wnt/beta-catenin pathway in mouse embryonic stem cells treated with four GSK3 inhibitors” (BMC Research Notes, 2014).
